Data on four molecules can be found in patent US20210346319A1, “Pharmaceutical Compositions of R-(+)-Propranolol in Enantiomeric Excess and Therapeutic Uses Related Thereto” (Emory University, priority 2018, published 2021).

SMILES strings stand for the structures. “Also recorded” adds a separate entry of the source.

Test [1] deals with Angptl4. Kind of test: Gene array of treated hemangioma stem cells (HemSC). Type of test: cell-based, human. As to conditions: for Angptl4 gene regulation on gene array: HemSC cells vs vehicle control; for effectiveness in downregulating Angptl4 compared with S-propranolol: hemangioma stem cells.
The subject of test [2] is Angptl4. The experiment in a line: Western blot analysis of Angptl4 in HemSC cells. (In general: Immunoblotting shows a protein as a band on a membrane.)
The subject of test [3] is Angptl4. Conditions: bEnd.3 cells, FIG. 1.
Another test relates to bEnd.3 hemangioma cells. Kind of test: Seahorse analysis of respiration in bEnd.3 cells. Conditions: for basal respiration / spare respiratory capacity: FIG. 5B; for maximal respiration: compared to vehicle control.
The next test concerns bEnd.3 tumors. The experiment in a line: RNAseq analysis of R-propranolol vs vehicle treated tumors. Type of test: in vivo, mice. From the text:
In order to gain an understanding of the mechanism of action of R-propranolol in vivo, vehicle and R-propranolol treated tumors were subjected to RNA seq analysis. […] The APOA1 gene expresses a protein called apolipoprotein A-I (apoA-I). ApoA-I is a component of high-density lipoprotein (HDL) which transports cholesterol and phospholipids through the bloodstream for excretion by the liver beneficial for cardiovascular health.

In another test the test system is bEnd.3 hemangioma. The experiment in a line: bEnd.3 hemangioma xenograft growth in nude mice. The test is classed as in vivo. Conditions: p=0.014. As to the method:
The xenograft model was developed and approved by the Institutional Animal Care and Use Committee of Emory University. bEnd.3 cell suspension in growth medium was inoculated in the right flank of athymic Nu/Nu nude male mice purchased from the Charles River Laboratories at 2.5×10^5 cells/mouse (n=5 per group). Control or R-propranolol was administered intraperitoneally five times a week at 3.5 mg/kg/day. R-propranolol treatment was initiated on the second day after the tumor cell injection.
To elucidate the signaling cascade independent of beta blockade in hemangioma formation, tie-2-deficient mouse hemangioma cell line, bEnd.3 was xenografted and treated with or without R-propranolol, isomer deficient in beta blockade activity.

Test [4] has as its system Angptl4. Kind of test: Downregulation of VEGF/Angptl4 by propranolol and its isomers (summary statements). Type of test: cell-based.
The test system of a further test is VEGF. The experiment in a line: VEGF levels in infants receiving propranolol for hemangioma of infancy. The test is classed as in vivo, human. As to conditions: saliva of infants with hemangiomas, hydrochloride. An excerpt: (§1) Genetic studies of hemangiomas have not elucidated a common genetic cause, as opposed to other vascular lesions, such as vascular malformations and angiosarcomas, in which genetic mutations have been found. Cytokines have been found in hemangiomas of infancy, including vascular endothelial growth factor (VEGF) and Angiopoietin-2 (Ang-2). The role of these factors in hemangiomas are not fully understood, especially given that Ang-2 can serve as a growth factor or mediate endothelial apoptosis depending on the context. A series of infants were studied who received propranolol for treatment of hemangioma of infancy.

A further test has as its system hemangioma of infancy. Conditions: infant who received propranolol for cardiac disease; cited from earlier work.
The test system of the next test is Angiopoietin-2 (Ang-2). Kind of test: Ang-2 levels in infants receiving propranolol for hemangioma of infancy. The test is classed as in vivo, human. Conditions: saliva of infants with hemangiomas.
Excerpt: as §1

The mark [5] stands for this setting: RNAseq treated vs vehicle tumors.

For `CN(C)c1ccc(C(=C2C=CC(=[N+](C)C)C=C2)c2ccc(N(C)C)cc2)cc1` [gentian violet], the “Angptl4 gene regulation on gene array” value in the test on Angptl4 [1] is “downregulated; also recorded: most regulated gene”. Moreover, the “Angptl4 expression, Western blot” value in the test with Angptl4 [2] (FIG. 1) was “suppressed Angptl4”; with Angptl4 [2] (FIG. 1, listed as Gentian violet), “downregulated Angptl4”. The Angptl4 protein expression result in the test on Angptl4 [3] is listed as “much reduced”.

Consider `CC(C)NCC(O)COc1cccc2ccccc12` (stereo not drawn) [S-propranolol, reference compound], for which the “Angptl4 gene regulation on gene array” value with Angptl4 [1] is listed as “downregulated; also recorded: most regulated gene”. For the same molecule, the “Angptl4 expression, Western blot” value with Angptl4 [2] (FIG. 1) was “not”; in the test on Angptl4 [2] (FIG. 1, listed as S isomer), “had no effect”. The Angptl4 protein expression entry with Angptl4 [3] is “slightly elevated”. Moreover, the basal respiration entry with bEnd.3 hemangioma cells is “increased”. The spare respiratory capacity result in the test with bEnd.3 hemangioma cells was “increased”. Moreover, in the test on bEnd.3 hemangioma cells (FIG. 5A), the maximal respiration result is on record as “substantially increased”.

For the molecule `CC(C)NC[C@@H](O)COc1cccc2ccccc12` [R-propranolol, (R)-(+)-1-(isopropylamino)-3-(naphthalen-1-yloxy)propan-2-ol], in the test with Angptl4 [1], the “Angptl4 gene regulation on gene array” value was “downregulated; also recorded: most regulated gene” and the “effectiveness in downregulating Angptl4 compared with S-propranolol” value is “far more effective”. The “effectiveness in downregulating Angptl4 compared with S-propranolol” value with Angptl4 [1] (listed as R(+)-propranolol) was “More Effective”. Also, the “Angptl4 expression, Western blot” value in the test on Angptl4 [2] (FIG. 1) is recorded as “reduced expression of Angptl4”. The “Angptl4 expression, Western blot” value with Angptl4 [2] (FIG. 1, listed as R-isomer) was “suppressed Angptl4”. In addition, in the test with bEnd.3 tumors (setting [5]), the APOA1 expression result is on record as “induced; also recorded: upregulated”, the BHMT expression result was “most highly regulated gene; also recorded: upregulated; also recorded: most upregulated”, the Egr-1 expression result is “elevated; also recorded: upregulated” and the “choline metabolism pathway (KEGG analysis)” value is reported as “the pathway affected; also recorded: highly affected”. Also, in the test on bEnd.3 tumors (RNAseq, FIG. 4), the Eno4 expression result is recorded as “downregulated”, the Faim2 expression result is recorded as “downregulated”, the Hunk expression entry is recorded as “downregulated” and the “number of RNA transcripts significantly downregulated” value is “Seven”. The “number of RNA transcripts upregulated” value in the test with bEnd.3 tumors (RNAseq, FIG. 4) is given as “seventeen”. In addition, the Angptl4 protein expression entry with Angptl4 [3] was “markedly reduced”. The same molecule yielded a tumor volume in the test with bEnd.3 hemangioma (3.5 mg/kg/day intraperitoneally five times a week, control 593.32, n=5 per group) of 37.60 mm3. Also, the “effect on bEnd.3 hemangioma tumor growth in vivo” value in the test on bEnd.3 hemangioma (xenograft in mice, within two weeks of tumor development) is given as “active in vivo; also recorded: significant tumor volume reduction; also recorded: significantly reduced the tumor volume; also recorded: inhibited the growth; also recorded: significant inhibition of tumor growth”. Moreover, in the test on bEnd.3 hemangioma cells (FIG. 5A), the “respiration compared with S-propranolol” value is given as “stronger respiration” and the maximal respiration result is reported as “substantially increased”. For the same molecule, in the test with bEnd.3 hemangioma cells, the basal respiration entry was “increased” and the spare respiratory capacity entry is reported as “increased”. Also, the “activity against Angptl4 compared with S-propranolol” value in the test with Angptl4 [4] (endothelial cells) is listed as “greater downregulation; also recorded: more active”.

For the molecule `CC(C)NCC(O)COc1cccc2ccccc12.Cl` (racemic) [propranolol, (±)-1-[(1-methylethyl)amino]-3-(1-naphthalenyloxy)-2-propanol hydrochloride], the VEGF levels result in the test with VEGF was “reduced”; with VEGF (listed as Propranolol), “downregulates”. Further, the “hemangioma of infancy, clinical course” value in the test with hemangioma of infancy is given as “regression”. For the same molecule, the “N4RA1 (Nur77) expression” value in the test with bEnd.3 tumors (setting [5]) was “upregulated”. Besides, the Ang-2 levels entry in the test on Angiopoietin-2 (Ang-2) is “not”. In the test on Angptl4 [4], the VEGF/Angplt4 downregulation result is “coordinately downregulates”.
